Assay results reported in article PMC9550643 (iScience, 2022).
Read-outs that look alike come from different tables or passages of the source.

What was measured:
[1] = system: estrogen receptor; conditions: ref Kolle et al., 2010; cited from earlier work
[2] = molecular target: T1, estrogen receptor-α (ERα) (Homo sapiens, UniProt P03372); format: cell-based; conditions: iER-GFP cells, 2 h; mixtures as dilution series, chemicals 1 nM to 100 μM
T1 sequence (P03372 1-595): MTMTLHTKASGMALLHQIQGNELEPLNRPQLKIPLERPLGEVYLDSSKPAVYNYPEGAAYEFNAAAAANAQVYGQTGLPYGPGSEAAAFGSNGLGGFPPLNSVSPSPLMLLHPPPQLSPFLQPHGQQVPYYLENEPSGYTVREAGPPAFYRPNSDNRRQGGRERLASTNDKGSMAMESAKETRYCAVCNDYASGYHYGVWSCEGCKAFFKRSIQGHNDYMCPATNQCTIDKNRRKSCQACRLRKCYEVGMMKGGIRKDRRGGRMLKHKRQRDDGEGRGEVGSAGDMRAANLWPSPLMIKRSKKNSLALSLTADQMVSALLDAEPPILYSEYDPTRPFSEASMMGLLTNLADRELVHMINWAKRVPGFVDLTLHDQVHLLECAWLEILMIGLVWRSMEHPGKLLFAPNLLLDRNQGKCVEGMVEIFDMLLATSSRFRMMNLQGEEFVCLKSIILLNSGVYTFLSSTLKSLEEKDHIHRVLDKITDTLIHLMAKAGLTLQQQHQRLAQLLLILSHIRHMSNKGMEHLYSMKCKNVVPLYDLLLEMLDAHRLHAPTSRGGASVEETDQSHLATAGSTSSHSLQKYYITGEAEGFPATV

[3] = system: dsRed2skl mRNA; format: cell-based, Human; conditions: 2 h
[4] = system: SRC-1, SRC-3, and phosphorylated RNA Pol II (serine 5); test: Immunofluorescence of co-activator and RNA Pol II recruitment to the PRL-array; format: cell-based, Human; conditions: GFP-ER and iER-GFP cells, 10 nM, 2 h

C[C@]12C[C@H](O)[C@H]3[C@@H](CCC4=CC(=O)CC[C@@]43C)[C@@H]1CC[C@@H]2C(=O)CO [Corticosterone]
activity in yeast-based estrogenic assays [1]: (anti-)estrogenic activity

OC(c1ccc(Cl)cc1)(c1ccc(Cl)cc1)C(Cl)(Cl)Cl [Dicofol]
chromatin binding activity (AUC) as share of the activity observed with E2 [2]: at least 10%

C[C@]12CC[C@@H]3c4ccc(O)cc4CC[C@H]3[C@@H]1CC[C@@H]2O [E2, 17β-estradiol]
dsRed2skl FISH signal, increase above untreated ([3]; GFP-ER cells): 3.2 fold
maximal induced dsRed2skl FISH signal ([3]; GFP-ER cells): 39,685 ± 2338 IU
dsRed2skl FISH signal, increase above untreated ([3]; iER-GFP cells): 11.4 fold
maximal induced dsRed2skl FISH signal ([3]; iER-GFP cells): 234,008 ± 1329 IU
dsRed2skl FISH signal, increase above untreated ([3]; iGFP-ER cells): 5.0 fold
maximal induced dsRed2skl FISH signal ([3]; iGFP-ER cells): 84,564 ± 628 IU
recruitment of SRC-3 to the PRL-array [4]: strong recruitment

COc1ccc(C(c2ccc(OC)cc2)C(Cl)(Cl)Cl)cc1 [Methoxychlor]
chromatin binding activity (AUC) as share of the activity observed with E2 [2]: at least 10%

CC(=O)[C@H]1CC[C@H]2[C@@H]3CCC4=CC(=O)CC[C@]4(C)[C@H]3CC[C@]12C [Progesterone]
activity in yeast-based estrogenic assays [1]: (anti-)estrogenic activity

O=S1OCC2C(CO1)C1(Cl)C(Cl)=C(Cl)C2(Cl)C1(Cl)Cl (centres unmarked) [endosulfan]
chromatin binding activity (AUC) as share of the activity observed with E2 [2]: at least 10%

CCOP(=S)(OCC)SCSP(=S)(OCC)OCC [ethion]
chromatin binding activity (AUC) as share of the activity observed with E2 [2]: at least 10%

Clc1ccc(C(c2ccccc2Cl)C(Cl)(Cl)Cl)cc1 (centres unmarked) [o,p'-DDT]
chromatin binding activity (AUC) as share of the activity observed with E2 [2]: at least 10%
